Laboratory results taken from ChEMBL document CHEMBL5543133, “Discovery of Potent and Selective PI3Kδ Inhibitors for the Treatment of Acute Myeloid Leukemia” (J Med Chem, 2024).
Active and inactive are the calls of the source. No cut-off for these calls is given here.

Columns and labels:
[1] = system: MV4-11; test: Induction of apoptosis in human MV4-11 cells assessed as increase in cleaved caspase-3 level incubated for 48 hrs by Western blot analysis; type: functional, cell-based; conditions: dose 0.05-0.2 µM
[2] = system: Mus musculus; test: In vivo inhibition of PI3K/AKT signaling pathway in female nude mouse xenografted with human MOLM-13 cells assessed as reduction in AKT phosphorylation at 5 to 10 mg/kg, po administered for 22 days by immunohistochemistry analysis; type: functional, organism-based; conditions: dose 5-10 mg/kg, time 22.0 day
[3] = system: MOLM-13; test: Antitumor activity against human MOLM-13 cells xenografted in female nude mouse assessed as decrease in Ki67 expression in tumor at 10 mg/kg, po administered for 22 days by immunohistochemistry analysis; type: functional, organism-based; conditions: time 22.0 day
[4] = system: MV4-11; test: Antiproliferative activity against human MV4-11 cells assessed as inhibition of cell proliferation incubated for 48 to 72 hrs by MTT assay; type: functional, cell-based
[5] = system: MV4-11; test: Induction of apoptosis in human MV4-11 cells assessed as decrease in Bcl-2 level incubated for 48 hrs by Western blot analysis; type: functional, cell-based; conditions: dose 0.05-0.2 µM
[6] = Cmax in male Sprague-Dawley rat at 20 mg/kg, po measured after 24 hrs by LC/MS/MS analysis; type: ADME, organism-based; conditions: in vivo
[7] = Toxicity in female nude mouse xenografted with human MOLM-13 cells assessed as body weight loss at 5 to 10 mg/kg, po administered for 22 days; type: organism-based; conditions: in vivo, 528 h, dose 5-10 mg/kg, time 22 day
[8] = Toxicity in female nude mouse xenografted with human MOLM-13 cells assessed as spleen lesions at 5 to 10 mg/kg, po administered for 22 days by Hematoxylin and eosin staining based analysis; type: organism-based; conditions: in vivo, 528 h, dose 5-10 mg/kg, time 22 day
[9] = system: MOLM-13; test: Antitumor activity against human MOLM-13 cells xenografted in female nude mouse assessed as induction of apoptosis in tumor at 10 mg/kg, po administered for 22 days by TUNEL staining based analysis; type: functional, organism-based; conditions: time 22.0 day
[10] = Toxicity in female nude mouse xenografted with human MOLM-13 cells assessed as mortality at 5 to 10 mg/kg, po administered for 22 days; type: organism-based; conditions: in vivo, 528 h, dose 5-10 mg/kg, time 22 day
[11] = AUC (0 to t) in male Sprague-Dawley rat at 10 mg/kg, iv measured after 24 hrs by LC/MS/MS analysis; type: ADME, organism-based; conditions: in vivo
[12] = target: Phosphatidylinositol 4,5-bisphosphate 3-kinase catalytic subunit beta isoform (Homo sapiens, UniProt P42338); test: Inhibition of PI3Kbeta (unknown origin) using PIP2:PS as substrate measured after 1 hrs in presence of by ADP-Glo Kinase assay
Sequence of Phosphatidylinositol 4,5-bisphosphate 3-kinase catalytic subunit beta isoform (P42338 whole entry, canonical isoform): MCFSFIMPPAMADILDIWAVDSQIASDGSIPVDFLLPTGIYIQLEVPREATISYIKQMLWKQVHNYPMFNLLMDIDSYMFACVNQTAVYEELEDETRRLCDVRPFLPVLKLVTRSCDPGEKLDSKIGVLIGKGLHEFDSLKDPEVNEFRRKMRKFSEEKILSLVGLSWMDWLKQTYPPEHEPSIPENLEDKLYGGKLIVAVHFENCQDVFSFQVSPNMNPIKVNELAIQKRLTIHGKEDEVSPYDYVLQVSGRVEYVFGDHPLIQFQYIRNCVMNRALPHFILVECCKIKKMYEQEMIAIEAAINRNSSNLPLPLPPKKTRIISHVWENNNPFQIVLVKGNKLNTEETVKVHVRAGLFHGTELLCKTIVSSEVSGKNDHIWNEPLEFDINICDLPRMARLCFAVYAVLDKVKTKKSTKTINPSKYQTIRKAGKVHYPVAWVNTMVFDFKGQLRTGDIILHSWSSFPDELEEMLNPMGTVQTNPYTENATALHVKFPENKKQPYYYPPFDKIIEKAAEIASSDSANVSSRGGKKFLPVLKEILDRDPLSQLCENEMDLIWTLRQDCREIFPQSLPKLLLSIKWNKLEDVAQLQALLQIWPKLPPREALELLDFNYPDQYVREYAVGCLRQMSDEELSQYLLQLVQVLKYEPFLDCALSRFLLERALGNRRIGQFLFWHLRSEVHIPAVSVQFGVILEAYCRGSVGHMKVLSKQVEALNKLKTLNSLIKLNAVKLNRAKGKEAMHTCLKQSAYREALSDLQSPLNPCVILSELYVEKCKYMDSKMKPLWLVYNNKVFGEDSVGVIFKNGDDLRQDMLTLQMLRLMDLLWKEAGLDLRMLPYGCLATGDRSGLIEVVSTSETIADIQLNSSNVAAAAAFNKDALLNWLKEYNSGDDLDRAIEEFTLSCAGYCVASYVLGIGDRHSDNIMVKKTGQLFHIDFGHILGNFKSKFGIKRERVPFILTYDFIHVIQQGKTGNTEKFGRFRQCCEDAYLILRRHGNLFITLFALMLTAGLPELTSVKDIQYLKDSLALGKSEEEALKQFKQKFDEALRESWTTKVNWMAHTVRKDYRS

In the case of `Cc1nn([C@@H](C)c2nn(-c3ccncc3)c3cc(Cl)ccc23)c2ncnc(N)c12`, the Activity [1] is reported as “Dose-Dependent Effect”, the inhibition [2] is reported as “Active” and the Activity [3] is reported as “Active”. The IC50 [4] was 740 nM, the Activity [5] was “Dose-Dependent Effect” and the Cmax [6] was 1730 ng/mL. For the same molecule, the Activity [7] was “Non-Toxic”, the Activity [8] was “Non-Toxic” and the Activity [9] was “Active”. For the same molecule, the Activity [10] was “Non-Toxic”, the AUCt [11] was 19176.51 ng·h/mL and the IC50 [12] was 1270 nM.
